Values quoted from earlier work as cited in patent US20240373890A1, “SWEETENER AND FLAVORING COMPOSITIONS PREPARED BY GLYCOSYLATED MOGROSIDES OR MONK FRUIT EXTRACTS, METHOD OF MAKING AND METHOD OF USE THEREOF” (EPC NATURAL PRODUCTS CO., LTD., priority 2021, published 2024).
Residues, ends and D or L forms follow the SMILES beside them.

settings: depends on the tested concentration compared with sucrose

Compound | Sweetness intensity compared with sucrose
C[C@H](CC[C@@H](O[C@@H]1O[C@H](CO[C@@H]2O[C@H](CO)[C@@H](O)[C@H](O)[C@H]2O)[C@@H](O)[C@H](O)[C@H]1O[C@@H]1O[C@H](CO)[C@@H](O)[C@H](O)[C@H]1O)C(C)(C)O)[C@H]1CC[C@@]2(C)[C@@H]3CC=C4[C@@H](CC[C@H](O[C@@H]5O[C@H](CO[C@@H]6O[C@H](CO)[C@@H](O)[C@H](O)[C@H]6O)[C@@H](O)[C@H](O)[C@H]5O)C4(C)C)[C@]3(C)[C@H](O)C[C@]12C [mogroside V] | 250-300 times
thaumatin | about 2000 times
COC(=O)[C@H](Cc1ccccc1)NC(=O)[C@@H](N)CC(=O)O [Aspartame] (H-Asp-Phe-OMe) | 160-200 times
OC[C@H]1O[C@H](O[C@]2(CCl)O[C@H](CCl)[C@@H](O)[C@@H]2O)[C@H](O)[C@@H](O)[C@H]1Cl [sucralose] | about 600 times
O=S(=O)([O-])NC1CCCCC1.[Na+] [sodium cyclamate] | about 30 times
